Experimental data as given in ChEMBL document CHEMBL1148228, “Synthesis of N tau-arylhistidine derivatives via direct N-arylation” (Bioorg Med Chem Lett, 2004).

Organism: Oryctolagus cuniculus
Experiment: Inhibitory concentration of compound against antigen binding site in immunized rabbits
Format: functional, organism-based

IC50: ~1 µM
Compound: CC(=O)NC(Cc1cn(-c2ccc(Br)cc2)cn1)C(=O)O (stereo unspecified)
